# Data from patent US4192888A, “Pharmaceutical compositions and method of inhibiting phenylethanolamine N-methyltransferase” (SmithKline Corporation, priority 1978, dated 1980).
# Tests used:
# PNMT = test: In vivo conversion of 3H-norepinephrine into 3H-epinephrine in rat adrenals after oral dosing (PNMT inhibition); conditions: rats, 50 mg./kg. three times over 24 hours, tracer 3H-norepinephrine i.v. (tail vein) one hour after last dose, adrenals assayed 45 min later, active if p<0.05
# From the text: One hour after the last dose the rats are given a tracer dose of ^3 H-norepinephrine into a tail vein. Forty-five minutes later they are sacrificed by decapitation and the adrenals assayed for ^3 H-epinephrine and ^3 H-norepinephrine.
# [1] = target: T1, phenylethanolamine N-methyltransferase (Oryctolagus cuniculus, UniProt G1TT82); test: In vitro inhibition of phenylethanolamine N-methyltransferase (Pendleton and Snow procedure); format: biochemical; conditions: for In Vitro Inhibition % at 10^-4: compound concentration 10^-4; for inhibition at 1 µM: compound concentration 10^-6M
# T1 construct: from tissue
# T1 sequence (G1TT82 1-286): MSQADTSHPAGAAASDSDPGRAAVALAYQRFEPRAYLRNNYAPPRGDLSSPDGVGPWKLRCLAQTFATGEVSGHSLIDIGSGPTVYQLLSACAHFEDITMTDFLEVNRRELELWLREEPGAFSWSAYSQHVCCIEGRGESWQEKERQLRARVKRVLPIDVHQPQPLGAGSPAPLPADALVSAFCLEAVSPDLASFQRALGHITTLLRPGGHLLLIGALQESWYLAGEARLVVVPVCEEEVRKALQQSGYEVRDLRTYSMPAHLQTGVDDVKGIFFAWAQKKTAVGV
# From the text: For example, following are in vitro results obtained from testing several compounds present in the pharmaceutical compositions and methods of this invention.
compound,measurement,setting,value
"NC1Cc2ccc(S(N)(=O)=O)cc2C1 (stereo not shown) [5-sulfamoyl-2-aminoindane, 5-sulfamyl-2-indanamine]",inhibition of the conversion of radioactive norepinephrine into epinephrine,PNMT,significantly inhibited this conversion (p<0.01)
NC1Cc2ccc(Br)cc2C1 (stereo not shown) [compound 85347],In Vitro Inhibition % at 10^-4,[1],96%
same,inhibition at 1 µM,[1],33%
NC1Cc2ccc([N+](=O)[O-])cc2C1 (stereo not shown) [compound 85391],In Vitro Inhibition % at 10^-4,[1],96%
same,inhibition at 1 µM,[1],23%
NC1Cc2ccc(Cl)cc2C1 (stereo not shown) [compound 85506],In Vitro Inhibition % at 10^-4,[1],96%
same,inhibition at 1 µM,[1],37%
